{
  "source": "patent USRE48335E1",
  "about": "“Polymyxin derivatives as antimicrobial compounds” (priority 2014, dated 2020)",
  "key": {"[1]": {"test_system": "Pseudomonas aeruginosa", "conditions": "for MIC: P. aeruginosa ATCC 27853; for Minimum inhibitory concentration, Pa ATCC 27853: Pseudomonas aeruginosa ATCC 27853; for Minimum inhibitory concentration, Pa ATCC 27853 / Minimum inhibitory concentration, Pa FADDI-PA022 / Minimum inhibitory concentration, Pa FADDI-PA025: broth microdilution in CAMHB; for Minimum inhibitory concentration, Pa FADDI-PA022: Pseudomonas aeruginosa FADDI-PA022; for Minimum inhibitory concentration, Pa FADDI-PA025: Pseudomonas aeruginosa FADDI-PA025", "outline": "(§1)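 Minimum inhibitory concentrations come from CLSI-standard broth microdilution in cation-adjusted Mueller-Hinton broth.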"}, "[2]": {"test_system": "Enterobacter cloacae", "conditions": "broth microdilution in CAMHB; for Minimum inhibitory concentration, Ec FADDI-EC001: Enterobacter cloacae FADDI-EC001; for Minimum inhibitory concentration, Ec FADDI-EC003: Enterobacter cloacae FADDI-EC003; for Minimum inhibitory concentration, Ec FADDI-EC006: Enterobacter cloacae FADDI-EC006", "outline": "as §1"}, "[3]": {"test_system": "Acinetobacter baumannii", "conditions": "for MIC: A. baumannii ATCC 19606; for Minimum inhibitory concentration, Ab A ATCC 17978: Acinetobacter baumannii ATCC 17978; for Minimum inhibitory concentration, Ab A ATCC 17978 / Minimum inhibitory concentration, Ab ATCC 19606 / Minimum inhibitory concentration, Ab FADDI-AB034: broth microdilution in CAMHB; for Minimum inhibitory concentration, Ab ATCC 19606: Acinetobacter baumannii ATCC 19606; for Minimum inhibitory concentration, Ab FADDI-AB034: Acinetobacter baumannii FADDI-AB034", "outline": "as §1"}, "[4]": {"test_system": "Klebsiella pneumoniae", "conditions": "K. pneumoniae FADDI-KP032", "outline": "as §1"}, "[5]": {"test_system": "A. baumannii ATCC 19606", "assay": "In vivo efficacy in mouse blood infection model (neutropenic Swiss mice)", "conditions": "compound, free base 4 mg/kg intravenously 2 h after inoculation, blood at 4 h", "outline": "(§2)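 Neutropenic Swiss mice (cyclophosphamide 150 mg/kg day −4, 100 mg/kg day −1, i.p.) infected i.v. with early log-phase bacteria; 4 mg/kg free base i.v. given 2 h post-inoculation. Blood CFU by cardiac puncture 4 h post-dose; Δlog10 CFU/mL treated versus saline controls.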"}, "[6]": {"test_system": "P. aeruginosa ATCC 27853", "assay": "In vivo efficacy in mouse blood infection model (neutropenic Swiss mice)", "conditions": "compound, free base 4 mg/kg intravenously 2 h after inoculation, blood at 4 h", "outline": "as §2"}, "[7]": {"test_system": "K. pneumoniae FADDI-KP032", "assay": "In vivo efficacy in mouse blood infection model (neutropenic Swiss mice)", "conditions": "compound, free base 4 mg/kg intravenously 2 h after inoculation, blood at 4 h", "outline": "as §2"}, "[8]": {"assay": "Nephrotoxicity in a mouse model (kidney histology score)", "assay_type": "in vivo", "conditions": "mice, subcutaneous 12 mg base/kg, 6 doses in one day every 2 h; for Max Overall Kidney Histology Score: kidney ~20 h after last dose, product of percentage score and grade score; for Max Kidney Histology Score: semiquantitative score (SQS) 0 to +5", "method": "PMB sulphate (Batch 20120204) and colistin sulphate (Batch 20120719) were supplied by Betapharma (Shanghai Co., Ltd, China). […] At ˜20 h after the last dose, mice were euthanised by inhalation of an overdose of isoflurane. […] The formalin-fixed kidneys were then sent to the Australian Phenomics Network-Histopathology and Organ Pathology (The University of Melbourne, Parkville, VIC, Australia) for histological examination. The samples were examined by a pathologist who was blind to the treatment groups. Lesions were rated as follows: mild acute tubular damage with tubular dilation, prominent nuclei and a few pale […] tubular casts (Grade 1); severe acute tubular damage with necrosis of tubular epithelial cells and numerous tubular casts (Grade 2); acute cortical necrosis/infarction of tubules and glomeruli with or without papillary necrosis (Grade 3). […] The overall kidney histology score was calculated as the product of percentage score and grade score. […] These scores were assigned as follows: […] SQS+3=moderate damage (overall score, 30 to <45); […]"}},
  "note": "Positions of bridges follow the written chain, without caps; N, C: chain ends. Non-standard residues stand in square brackets, D forms with d. Residues, ends and D or L forms follow the SMILES beside them. *: point of attachment. Benzoyl(3,5-Cl2) = O=C(c1cc(Cl)cc(Cl)c1)*; X4 = O=C(c1ccc(Cl)c(Cl)c1)*; X3 = O=C(c1ccc(Cl)cc1Cl)*; Dab = NCC[C@H](N)C(=O)O; Abu = CC[C@H](N)C(=O)O; Dap = NC[C@H](N)C(=O)O",
  "data": [
    {"smiles": "CC[C@@H]1NC(=O)[C@@H](CC(C)C)NC(=O)[C@H](CCN)NC(=O)[C@@H](NC(=O)[C@H](CN)NC(=O)[C@@H](NC(=O)[C@H](CCN)NC(=O)c2ccc(Cl)c(Cl)c2)[C@@H](C)O)CCNC(=O)[C@H]([C@@H](C)O)NC(=O)[C@H](CCN)NC(=O)[C@H](CCN)NC1=O", "note": "[Compound 71] (X4-[Dab]T[Dap][Dab][Dab][dL][Abu][Dab][Dab]T; lactam 4-C)", "values": [
      {"measurement": "MIC", "setting": "[1]", "value": 0.5, "unit": "µg/mL"},
      {"measurement": "Minimum inhibitory concentration, Pa ATCC 27853", "setting": "[1]", "value": 0.5, "unit": "µg/mL"},
      {"measurement": "Minimum inhibitory concentration, Pa FADDI-PA022", "setting": "[1]", "value": 4, "unit": "µg/mL"},
      {"measurement": "Minimum inhibitory concentration, Pa FADDI-PA025", "setting": "[1]", "value": 1, "unit": "µg/mL"},
      {"measurement": "Minimum inhibitory concentration, Ec FADDI-EC001", "setting": "[2]", "value": 1, "unit": "µg/mL"},
      {"measurement": "Minimum inhibitory concentration, Ec FADDI-EC003", "setting": "[2]", "value": 0.25, "unit": "µg/mL"},
      {"measurement": "Minimum inhibitory concentration, Ec FADDI-EC006", "setting": "[2]", "value": 1, "unit": "µg/mL"},
      {"measurement": "MIC", "setting": "[3]", "value": 0.5, "unit": "µg/mL"},
      {"measurement": "Minimum inhibitory concentration, Ab A ATCC 17978", "setting": "[3]", "value": 0.25, "unit": "µg/mL"},
      {"measurement": "Minimum inhibitory concentration, Ab ATCC 19606", "setting": "[3]", "value": 0.5, "unit": "µg/mL"},
      {"measurement": "Minimum inhibitory concentration, Ab FADDI-AB034", "setting": "[3]", "value": 0.25, "unit": "µg/mL"},
      {"measurement": "MIC", "setting": "[4]", "value": 0.5, "unit": "µg/mL"},
      {"measurement": "Δ log (Treated-Control at 4 h)", "setting": "[5]", "value": "−1.82", "unit": "log10 CFU/mL"},
      {"measurement": "Δ log (Treated-Control at 4 h)", "setting": "[6]", "value": "−4.04", "unit": "log10 CFU/mL"},
      {"measurement": "Δ log (Treated-Control at 4 h)", "setting": "[7]", "value": "−2.98", "unit": "log10 CFU/mL"},
      {"measurement": "Max Overall Kidney Histology Score", "setting": "[8]", "value": 0.0},
      {"measurement": "Max Kidney Histology Score", "setting": "[8]", "value": "0 (SQS 0=no significant change (overall score, <1))"}
    ]},
    {"smiles": "CC[C@@H]1NC(=O)[C@@H](CC(C)C)NC(=O)[C@H](CCN)NC(=O)[C@@H](NC(=O)[C@H](CN)NC(=O)[C@@H](NC(=O)[C@H](CCN)NC(=O)c2ccc(Cl)cc2Cl)[C@@H](C)O)CCNC(=O)[C@H]([C@@H](C)O)NC(=O)[C@H](CCN)NC(=O)[C@H](CCN)NC1=O", "note": "[Compound 82] (X3-[Dab]T[Dap][Dab][Dab][dL][Abu][Dab][Dab]T; lactam 4-C)", "values": [
      {"measurement": "MIC", "setting": "[1]", "value": 0.5, "unit": "µg/mL"},
      {"measurement": "Minimum inhibitory concentration, Pa ATCC 27853", "setting": "[1]", "value": 0.5, "unit": "µg/mL"},
      {"measurement": "Minimum inhibitory concentration, Pa FADDI-PA022", "setting": "[1]", "value": 0.5, "unit": "µg/mL"},
      {"measurement": "Minimum inhibitory concentration, Pa FADDI-PA025", "setting": "[1]", "value": 1, "unit": "µg/mL"},
      {"measurement": "Minimum inhibitory concentration, Ec FADDI-EC001", "setting": "[2]", "value": "<0.125", "unit": "µg/mL"},
      {"measurement": "Minimum inhibitory concentration, Ec FADDI-EC003", "setting": "[2]", "value": "<0.125", "unit": "µg/mL"},
      {"measurement": "Minimum inhibitory concentration, Ec FADDI-EC006", "setting": "[2]", "value": "<0.125", "unit": "µg/mL"},
      {"measurement": "MIC", "setting": "[3]", "value": 0.5, "unit": "µg/mL"},
      {"measurement": "Minimum inhibitory concentration, Ab A ATCC 17978", "setting": "[3]", "value": 0.5, "unit": "µg/mL"},
      {"measurement": "Minimum inhibitory concentration, Ab ATCC 19606", "setting": "[3]", "value": 0.5, "unit": "µg/mL"},
      {"measurement": "Minimum inhibitory concentration, Ab FADDI-AB034", "setting": "[3]", "value": 0.25, "unit": "µg/mL"},
      {"measurement": "MIC", "setting": "[4]", "value": "<0.125", "unit": "µg/mL"},
      {"measurement": "Δ log (Treated-Control at 4 h)", "setting": "[5]", "value": "−1.44", "unit": "log10 CFU/mL"},
      {"measurement": "Δ log (Treated-Control at 4 h)", "setting": "[6]", "value": "−3.44", "unit": "log10 CFU/mL"},
      {"measurement": "Δ log (Treated-Control at 4 h)", "setting": "[7]", "value": "−3.33", "unit": "log10 CFU/mL"},
      {"measurement": "Max Overall Kidney Histology Score", "setting": "[8]", "value": 0.0},
      {"measurement": "Max Kidney Histology Score", "setting": "[8]", "value": "0 (SQS 0=no significant change (overall score, <1))"}
    ]},
    {"smiles": "CC[C@@H]1NC(=O)[C@@H](CC(C)C)NC(=O)[C@H](CCN)NC(=O)[C@@H](NC(=O)[C@H](CN)NC(=O)[C@@H](NC(=O)[C@H](CCN)NC(=O)c2cc(Cl)cc(Cl)c2)[C@@H](C)O)CCNC(=O)[C@H]([C@@H](C)O)NC(=O)[C@H](CCN)NC(=O)[C@H](CCN)NC1=O", "note": "[Compound 96] ({Benzoyl(3,5-Cl2)}-[Dab]T[Dap][Dab][Dab][dL][Abu][Dab][Dab]T; lactam 4-C)", "values": [
      {"measurement": "MIC", "setting": "[1]", "value": 0.25, "unit": "µg/mL"},
      {"measurement": "Minimum inhibitory concentration, Pa ATCC 27853", "setting": "[1]", "value": 0.25, "unit": "µg/mL"},
      {"measurement": "Minimum inhibitory concentration, Pa FADDI-PA022", "setting": "[1]", "value": 0.25, "unit": "µg/mL"},
      {"measurement": "Minimum inhibitory concentration, Pa FADDI-PA025", "setting": "[1]", "value": 0.5, "unit": "µg/mL"},
      {"measurement": "Minimum inhibitory concentration, Ec FADDI-EC001", "setting": "[2]", "value": 1, "unit": "µg/mL"},
      {"measurement": "Minimum inhibitory concentration, Ec FADDI-EC003", "setting": "[2]", "value": 1, "unit": "µg/mL"},
      {"measurement": "Minimum inhibitory concentration, Ec FADDI-EC006", "setting": "[2]", "value": 0.5, "unit": "µg/mL"},
      {"measurement": "MIC", "setting": "[3]", "value": 0.5, "unit": "µg/mL"},
      {"measurement": "Minimum inhibitory concentration, Ab A ATCC 17978", "setting": "[3]", "value": 0.25, "unit": "µg/mL"},
      {"measurement": "Minimum inhibitory concentration, Ab ATCC 19606", "setting": "[3]", "value": 0.5, "unit": "µg/mL"},
      {"measurement": "Minimum inhibitory concentration, Ab FADDI-AB034", "setting": "[3]", "value": 0.25, "unit": "µg/mL"},
      {"measurement": "MIC", "setting": "[4]", "value": "<0.125", "unit": "µg/mL"},
      {"measurement": "Δ log (Treated-Control at 4 h)", "setting": "[5]", "value": "−2.42", "unit": "log10 CFU/mL"},
      {"measurement": "Δ log (Treated-Control at 4 h)", "setting": "[6]", "value": "−3.45", "unit": "log10 CFU/mL"},
      {"measurement": "Δ log (Treated-Control at 4 h)", "setting": "[7]", "value": "−2.75", "unit": "log10 CFU/mL"},
      {"measurement": "Max Overall Kidney Histology Score", "setting": "[8]", "value": 2.0},
      {"measurement": "Max Kidney Histology Score", "setting": "[8]", "value": "+1 (SQS+1=mild damage (overall score, 1 to <15))"}
    ]}
  ]
}
